# Values quoted from earlier work in patent publication US8268905B1, “Compositions containing poly(lactic acid), bacteriocin(s), plasticizers(s), and optionally pore forming agent(s), and methods or making” (The United States of America, as represented by the …, priority 2008, dated 2012).
# Settings: background statement
substance,measurement,value
nisin,maximal temperature at which nisin can retain its bioactivity,120 °C
